Experiments:
[1] = tested on: Human alphaherpesvirus 3; assay: Antiviral activity against Varicella-Zoster virus (thymidine kinase deficient) TK-(07/1); format: functional, organism-based
[2] = tested on: Human alphaherpesvirus 3; assay: Antiviral activity against Varicella-Zoster virus (OKA); format: functional, organism-based
[3] = tested on: Human alphaherpesvirus 3; assay: Antiviral activity against Varicella-Zoster virus (YS); format: functional, organism-based
[4] = tested on: HEL (human embryonic lung); assay: Minimal cytotoxic concentration, required to alter microscopically detectable cell morphology
[5] = tested on: HEL (human embryonic lung); assay: Cytotoxic concentration required to inhibit Hel cell growth

SMILES | EC50 [1] | EC50 [2] | EC50 [3] | MCC [4] | CC50 [5]
CCCCCCCc1ccc(-c2cc3cn([C@H]4C[C@H](O)[C@@H](CO)O4)c(=O)nc3s2)cc1 | > 20000 nM | 270 nM | 180 nM | 50 µM | > 200000 nM
CCc1ccc(-c2cc3cn([C@H]4C[C@H](O)[C@@H](CO)O4)c(=O)nc3s2)cc1 | 20000 nM | 200 nM | 150 nM | > 200 µM | > 200000 nM
CCCc1ccc(-c2cc3cn([C@H]4C[C@H](O)[C@@H](CO)O4)c(=O)nc3s2)cc1 | > 16000 nM | 90 nM | 60 nM | 80 µM | > 200000 nM
CCCCCc1ccc(-c2cc3cn([C@H]4C[C@H](O)[C@@H](CO)O4)c(=O)nc3s2)cc1 | 20000 nM | 25 nM | 14 nM | 50 µM | > 200000 nM
CCCCCCCCc1ccc(-c2cc3cn([C@H]4C[C@H](O)[C@@H](CO)O4)c(=O)nc3s2)cc1 | > 20000 nM |  | 3400 nM | ≥ 20 µM | > 200000 nM
CCCCCCCCc1cc2cn([C@H]3C[C@H](O)[C@@H](CO)O3)c(=O)nc2s1 | > 5000 nM | 2 nM | 5 nM | 20 µM | 53000 nM
CCCCCCc1ccc(-c2cc3cn([C@H]4C[C@H](O)[C@@H](CO)O4)c(=O)nc3s2)cc1 | > 50000 nM | 80 nM | 43 nM | 200 µM | > 200000 nM
CCCCc1ccc(-c2cc3cn([C@H]4C[C@H](O)[C@@H](CO)O4)c(=O)nc3s2)cc1 | > 3200 nM | 28 nM | 20 nM | 50 µM | > 200000 nM
Nc1nc2c(ncn2COCCO)c(=O)[nH]1 [ACYCLOVIR] | 40000 nM | 1100 nM |  | > 200 µM | > 400000 nM

Source: ChEMBL document CHEMBL1146720, “Bicyclic anti-VZV nucleosides: thieno analogues bearing an alkylphenyl side chain have reduced antiviral activity” (Bioorg Med Chem Lett, 2004)
